In article PMC9503459, “Antifungal Activity, Structural Stability, and Immunomodulatory Effects on Human Immune Cells of Defensin from the Lentil Lens culinaris” (Membranes, 2022):
Several values for one entry are separate records, joined by “and”; a condition that tells them apart may be missing. Equal values may be shown once. No end group written: not given here.

System: regulatory CD4+ FoxP3+ T cells (Tregs)
Assay: Cytokine response by multiplex xMAP, Tregs
Assay type: cell-based, human
Details: CD4+CD25+ Tregs, 2 µM, 24 h
Protocol: Colorectal adenocarcinoma Caco-2 cell line (ATCC HTB-37) was cultured in complete DMEM/F12 (1:1) medium containing 10% fetal bovine serum (FBS, Gibco) and 1X antibiotic-antimycotic solution (1XAAS, Invitrogen, Waltham, MA, USA). The acute monocytic leukemia THP-1 line (ATCC TIB-202) was cultured in complete RPMI-1640 medium, containing 10% FBS, 1XAAS, and […]. THP-1 cells were differentiated into pro-inflammatory macrophages (Mφ1) with phorbol 12-myristate 13-acetate (Sigma-Aldrich) for 24 h and subsequently polarized with lipopolysaccharide from E. coli (Sigma-Aldrich) and rhIFN-γ (Sigma-Aldrich) for another 48 h according to previously reported protocol. All cells were cultured in a humidified CO2 incubator (5% CO2, 37 °C). Primary peripheral blood mononuclear cells (PBMCs) collected from a healthy donor were purchased from American Type Culture Collection (ATCC PCS-800-011). CD4^+ T-helper and CD8^+ T cytotoxic cells were isolated from PBMCs by magnetic separation with mouse anti-human CD4-PE (clone 13B8.2, Beckman Coulter Diagnostics, Pasadena, CA, USA) and CD8-PE (clone REA734, Miltenyi Biotec, Bergisch Gladbach, Germany), Anti-PE MicroBeads (Miltenyi Biotec), and LS Separation Columns (Miltenyi Biotec). Isolated CD4^+ and CD8^+ cells were expanded separately with Dynabeads™ Human T-Expander CD3/CD28 (Gibco, Waltham, MA, USA) in RPMI-1640 supplemented with 10% FBS, 1XAAS and 100 U/mL rh-IL-2 (Gibco). Regulatory CD4^+ FoxP3^+ T cells (Tregs) were isolated from PBMCs by magnetic separation with CD4^+CD25^+ Regulatory T Cell Isolation Kit, human (Miltenyi Biotec). Primary CD14^+ blood monocytes were isolated from PBMCs by adherence according to standard technique. Monocyte-derived mature dendritic cells (moDCs) were obtained from CD14^+ blood monocytes according to the previously reported protocol. Briefly, blood monocytes were incubated in complete RPMI-1640 medium, containing 10% FBS, 1XAAS, 800 U/mL rhGM-CSF (Sci-Store, Russia, Moscow) and 500 U/mL rhIL-4 (Sci-Store) for 3 days. Fresh complete RPMI-1640 medium with rhGM-CSF and rhIL-4 was added to the culture on day 3. On day 5, fresh complete RPMI-1640 containing 100 U/mL rhTNF-α (Sigma) as well as 800 U/mL rhGM-CSF and 500 U/mL rhIL-4 was added and the culture was incubated for another 4 days until full maturation.
Caco-2 cells were seeded into the wells of a 48-well plate, coated with 0.1% bovine collagen (Sigma-Aldrich) for 24 h, 3 weeks before the experiment with complete DMEM/F12 (1:1) medium renewal every 2–3 days. Monocytes, moDCs, CD4^+ T-helper and CD8^+ T cytotoxic cells, Mφ1, and Regulatory CD4^+ FoxP3^+ T cells were seeded into the wells of 48-well plates in the complete RPMI-1640 medium supplemented with 10% Human AB serum (HABS, Capricorn Scientific, Ebsdorfergrund, Germany) and 1XAAS 24 h prior to the experiment; medium in Caco-2-containing wells was also replaced with the same medium. After 24 h, half of the medium in each well was replaced by fresh complete RPMI-1640 medium with 10% HABS, supplemented with 4 µM of Lc-def for the sample wells or fresh medium alone for the control wells. Cell cultures were kept in CO2-incubator (5% CO2, 37 °C) for another 24 h. Culture supernatants were collected 24 h later and stored at −70 °C degrees less than one month prior to the analytes assessment. […]

Q: “Lc-def: defensin from lentil Lens culinaris seeds (UniProt:B3F051), recombinant, overexpressed in Escherichia coli (KTCENLSDSFKGPCIPDGNCNKHCKEKEHLLSGRCRDDFRCWCTRNC; disulfide (positions not given here); ends not checked; also: disulfide bonds present, pairing not given here; UniProt B3F051 28-74, looked up)” was tested. Which EGF did it give?
A: The EGF was 4.15 pg/mL.

Q: What about the Eotaxin of the same substance?
A: Its Eotaxin is <3.23↓ pg/ml.

Q: What about the FGF-2 of the same substance?
A: The FGF-2 was 34.19 pg/mL.

Q: And the FLT-3L?
A: The FLT-3L was 0.62 pg/mL.

Q: And the Fractalkine?
A: Its Fractalkine is <23.19↓ pg/ml.

Q: What about the G-CSF of the same substance?
A: Its G-CSF is 9.93 pg/mL.

Q: What about the GM-CSF of the same substance?
A: The GM-CSF was 54.75 pg/mL.

Q: And the GROa?
A: The GROa was 29.97 pg/mL.

Q: What about the IFNa2 of the same substance?
A: Its IFNa2 is <4.43↓ pg/ml.

Q: And the IFNg?
A: Its IFNg is 38.55 pg/mL.

Q: And the IL-1RA?
A: Its IL-1RA is 1.04 pg/mL.

Q: And the IL-1a?
A: The IL-1a was 19.36 pg/mL.

Q: And the IL-1b?
A: Its IL-1b is <18.72↓ pg/ml.

Q: What about the IL-2 of the same substance?
A: Its IL-2 is 4.82 pg/mL.

Q: What about the IL-3 of the same substance?
A: The IL-3 was <0.48↓ pg/ml.

Q: And the IL-4?
A: The IL-4 was <0.31↓ pg/ml.

Q: And the IL-5?
A: Its IL-5 is <0.24↓ pg/ml.

Q: What about the IL-6 of the same substance?
A: The IL-6 was 317 pg/mL and 317.05 pg/mL.

Q: And the IL-7?
A: Its IL-7 is <0.33↓ pg/ml.

Q: And the IL-8?
A: The IL-8 was 1247 pg/mL.

Q: And the IL-9?
A: The IL-9 was 5.08 pg/mL.

Q: And the IL-10?
A: Its IL-10 is 42.25 pg/mL.

Q: And the “IL-12 (p40)” value?
A: The value was 19.56 pg/mL.

Q: What about the “IL-12 (p70)” value of the same substance?
A: Its value is 3.39 pg/mL.

Q: What about the IL-13 of the same substance?
A: Its IL-13 is 7.95 pg/mL.

Q: And the IL-15?
A: Its IL-15 is <1.45↓ pg/ml.

Q: What about the IL-17A of the same substance?
A: Its IL-17A is 2.6 pg/mL.

Q: What about the IL-17E/IL-25 of the same substance?
A: The IL-17E/IL-25 was <20.59↓ pg/ml.

Q: And the IL-17F?
A: Its IL-17F is 51.91 pg/mL.

Q: And the IL-18?
A: Its IL-18 is 0.56 pg/mL.

Q: What about the IL-22 of the same substance?
A: The IL-22 was 24.29 pg/mL.

Q: What about the IL-27 of the same substance?
A: The IL-27 was 84.77 pg/mL.

Q: And the IP-10?
A: Its IP-10 is 114.68 pg/mL.

Q: And the M-GSF?
A: The M-GSF was <23.75↓ pg/ml.

Q: And the MCP-1?
A: Its MCP-1 is 505 pg/mL and 505.45 pg/mL.

Q: And the MCP-3?
A: Its MCP-3 is 21.04 pg/mL.

Q: What about the MDC of the same substance?
A: The MDC was 968.96 pg/mL.

Q: And the MIG?
A: Its MIG is 479.53 pg/mL.

Q: And the MIP-1a?
A: The MIP-1a was 233 pg/mL and 233.56 pg/mL.

Q: And the MIP-1b?
A: Its MIP-1b is 313.49 pg/mL.

Q: What about the PDGF-AA of the same substance?
A: The PDGF-AA was <7.38↓ pg/ml.

Q: And the PDGF-AB/BB?
A: Its PDGF-AB/BB is 119.45 pg/mL.

Q: What about the RANTES of the same substance?
A: Its RANTES is 12.31 pg/mL.

Q: And the TGF-a?
A: Its TGF-a is 1.25 pg/mL.

Q: And the TNFa?
A: The TNFa was 97.83 pg/mL.

Q: What about the TNFb of the same substance?
A: Its TNFb is 2.32 pg/mL.

Q: And the VEGFa?
A: Its VEGFa is <1.27↓ pg/ml.

Q: What about the sCD40L of the same substance?
A: The sCD40L was 66.54 pg/mL.
